# Experimental data reported in US10837015B2, “Targeting the glutamine to pyruvate pathway for treatment of oncogenic Kras-associated cancer” (Dana-Farber Cancer Institute, Inc., priority 2012, dated 2020).
# Key:
# [1] = system: PDAC cells; assay: Cell proliferation assay (crystal violet); type: cell-based, human; details: for PDAC growth (relative growth): 8988T cells treated with inhibitor, FIG. 7A/7B
# Procedure: (§1) Cells were plated in 24-well plates at 2,000 cells per well in 0.5 mL of media. To deprive Gln, cells were plated in complete culture medium (10 mM glucose and 2 mM Gln) which was exchanged with Gln-free culture medium supplemented with 10% dFBS the following day. Cell culture media was not changed throughout the course of the experiment. At the indicated time points, cells were fixed in 10% formalin and stained with 0.1% crystal violet. Dye was extracted with 10% acetic acid and the relative proliferation was determined by OD at 595 nm.
# [2] = system: PDAC cells; assay: Clonogenic assay; type: cell-based, human; details: for sensitivity of clonogenic growth upon Kras knockdown: 8988T cells expressing shKras; for sensitivity of clonogenic growth upon Kras knockdown / clonogenic growth: FIG. 34; for clonogenic growth: 8988T cells, control shRNA; for rescue of clonogenic growth upon Gln deprivation: Gln-free medium supplemented with metabolite, FIG. 5, 22, 26, 29
# Procedure: Cells were plated in 6-well plates at 300 cells per well in 2 mL of media. Cell culture media was not changed throughout the course of the experiment. After 7-10 days, colonies were fixed in 80% methanol and stained with 0.2% crystal violet.
# [3] = system: HPDE (non-transformed human pancreatic ductal epithelial cells); assay: Cell proliferation assay, non-transformed pancreatic ductal cells; type: cell-based; details: FIG. 30A/30B
# Procedure: as §1
# [4] = system: PDAC cells (8988T, Panc1); assay: Sensitization of PDAC cells to ROS / cell viability with GLS inhibitors (Cell Titer Glo); type: cell-based, human; details: for relative cell viability (growth suppressive effect): 8988T or Panc1 cells, GLS inhibitor alone, FIG. 36; for relative cell viability, GLS inhibitor combined with H2O2: 8988T, Panc1, 968 or BPTES (100 nM) with increasing H2O2, FIG. 37, 38
# Procedure: PDAC cell lines were plated into 96-well plates at 10^3 cells/well in 200 μL of growth medium. The following day, growth medium was replaced with that containing GLS inhibitors and/or H2O2. Parallel plates were analyzed at 3, 6 and 9 days by Cell Titer Glo analysis (Promega), per the manufacturer's instruction. […] BPTES was a kind gift from Jaime Escobedo (Forma Therapeutics, Watertown, Mass.).
# [5] = system: 8988T cells; assay: ROS quantification (DCFDA assay, flow cytometry); type: cell-based, human
# Procedure: The DCFDA assay was performed 24 hr after supplementing Gln-free media with either OAA (4 mM) or dimethyl malate (4 mM). Cells were incubated with 5 μM 2′,7′-dichlorodihydrofluorescein diacetate (DCFDA, Invitrogen) for 30 min. Excess DCFDA was removed by washing the cells twice with PBS, and labeled cells were then trypsinized, rinsed, and resuspended in PBS. Oxidation of DCFDA to the highly fluorescent 2′,7′-dichloro-fluorescein (DCF) is proportionate to ROS generation and was analyzed by flow cytometry.
# [6] = system: IMR90 (human diploid fibroblasts); assay: Cell proliferation assay, diploid fibroblasts; type: cell-based; details: FIG. 30A/30B
# Procedure: as §1
smiles,measurement,setting,value
"O=C(O[C@@H]1Cc2c(O)cc(O)cc2O[C@@H]1c1cc(O)c(O)c(O)c1)c1cc(O)c(O)c(O)c1 [EGCG, Epigallocatechin Gallate]",PDAC growth (relative growth),[1],little effect
same,sensitivity of clonogenic growth upon Kras knockdown,[2],sensitive
same,clonogenic growth,[2],minimal effects
same,growth (relative growth) of HPDE cells,[3],significantly sensitive
CN(C)c1ccc(C2Nc3ccc4ccccc4c3C3=C2C(=O)CC(C)(C)C3)cc1Br (stereo not shown) [compound 968],relative cell viability (growth suppressive effect),[4],growth suppressive effect
same,"relative cell viability, GLS inhibitor combined with H2O2",[4],dramatically augmented
O=C(Cc1ccccc1)Nc1nnc(CCSCCc2nnc(NC(=O)Cc3ccccc3)s2)s1 [BPTES],relative cell viability (growth suppressive effect),[4],growth suppressive effect
same,"relative cell viability, GLS inhibitor combined with H2O2",[4],dramatically augmented
COC(=O)CCC(=O)C(=O)OC [dimethyl αKG],rescue of clonogenic growth upon Gln deprivation,[2],did not restore growth
"N[C@@H](CCC(=O)N[C@@H](CS)C(=O)NCC(=O)O)C(=O)O [GSH, reduced glutathione]",rescue of clonogenic growth upon Gln deprivation,[2],dramatically rescued the clonogenic survival
COC(=O)CC(O)C(=O)OC (stereo not shown) [dimethyl-malate],rescue of PDAC cell growth upon GOT1 knockdown,"[1]; 8988T cells expressing shGOT1, 4 mM supplement, FIG. 28",partially rescue PDAC cell growth
same,rescue of cell proliferation upon Gln deprivation,"[1]; Gln-free medium supplemented with metabolite, FIG. 6, 27",partially rescue PDAC cell growth
same,ROS levels (DCFDA signal) upon GOT1 knockdown,"[5]; 8988T cells expressing shGOT1, medium supplementation",rescued the oxidative stress
same,ROS levels (DCFDA signal) upon Gln deprivation,"[5]; Gln-free media supplemented 24 hr, 4 mM",rescued the oxidative stress
"NOCC(=O)O [AOA, aminooxyacetate]",growth (relative growth) of IMR90 cells,[6],no significant effect on growth
same,PDAC growth (relative growth),[1],robustly inhibited the growth
same,sensitivity of clonogenic growth upon Kras knockdown,[2],significantly more resistant
same,clonogenic growth,[2],significantly inhibited clonogenic growth
same,growth (relative growth) of HPDE cells,[3],no significant effect on growth
